Measurements from US10626095B2, “Cyanotriazole compounds” (OTSUKA PHARMACEUTICAL CO., LTD., priority 2013, dated 2020).
pEC50: −log10 of the molar value.

What follows are compounds tested on NaCT-CHO (CHO cells stably expressing human NaCT) (assay: Assay of the citric acid cycle activation ([1,5-14C]-citric acid, diffusion of [14C]-CO2)). Details: 1 hour incubation at 37° C. with [1,5-14C]-citric acid.
Type: cell-based
Excerpt: Assay of the Citric Acid Cycle Activation
(1) Construction of the Human NaCT Expression Vector pME-NaCT
The human NaCT (also called SLC13A5 or NAC2; GenBank accession No. NM_177550) cDNA was inserted into the EcoRI-NotI site of the mammalian expression vector pME18S (GenBank accession No. AB009864) and purified by Qiagen Plasmid Maxi Kit (Qiagen).
(2) Establishment of NaCT Stably Expressed CHO Cells
The pME-NaCT vector and the pcDNA™3.1 vector containing the neomycin resistance gene (Life Technologies) were co-transfected into CHO-K1 cells (ATCC) by Lipofectaimine 2000 reagent (Life Technologies). The next day the cells were subcultured in Nutrient Mixture F-12 Ham (Sigma-Aldrich) with 10% FBS (Biological Industries), and Geneticin (Life Technologies) was added (final concentration 350 μg/mL) in the following day. CHO cell clones stably expressing NaCT were given by neomycin resistant cell screening and limiting dilution method. Established cell lines (named NaCT-CHO) were also maintained in culture medium (Nutrient Mixture F-12 Ham) with 10% FBS and 350 μg/mL Geneticin. For control cells (named pME-CHO) preparation, the naive pME18S were also transfected instead of pME-NaCT into CHO-K1 cells.
(3) Assay of the Citric Acid Cycle Activation
NaCT-CHO and pME-CHO were plated at 20,000 cells/well into white CulturPlate™-96 (PerkinElmer) two days before the assay. Prior to assay incubation, the cultured plates were washed twice with washing buffer, 10 mM HEPES-Tris(pH7.4) containing 140 mM choline chloride, 2 mM KCl, 1 mM CaCl2, 1 mM MgCl2. The compounds to be tested were dissolved and diluted in DMSO (Wako Pure Chemical industries) to 1,000 times of a final concentration, and further diluted to two times as high as the final concentration in assay buffer, 10 mM HEPES-Tris(pH7.4) containing 140 mM NaCl, 2 mM KCl, 1 mM CaCl2, 1 mM MgCl2. The range of final concentrations was properly determined based on the test compounds activity. Each 25 μL compound solution was added to well and subsequently 25 μL radio-labeled substrate solution containing 0.4 mM (0.4 MBq/mL) [1,5-^14C]-citric acid (PerkinElmer) in the assay buffer was added. After 1 hour incubation at 37° C., the reaction mixture was discarded and washed three times with pre-chilled washing buffer and then 0.1 mL MicroScint 20 (PerkinElmer) was added to well. The plate was sealed with TopSeal-A (PerkinElmer) and the radioactivity was measured using a TopCount (PerkinElmer). Non-specific activity (NS cpm) and total radio activity (Total cpm) were determined by counting of pME-CHO plated wells and NaCT-CHO plated wells without compounds, respectively. Diffusion of [^14C]—CO2 was able to be estimated from residual radioactivity (R cpm) by an equation (Total−R)/(Total−NS)×100(%). The difference of Total and R was disappeared in the presence of 0.1 μM antimycin A. EC50 values were calculated by regression analysis using SAS Statistical Analysis System (SAS institute Japan Ltd. Release 9.1).

SMILES | pEC50
N#Cc1[nH]nnc1-c1cc(Cl)ccc1-c1cccc(C(F)(F)F)c1 [Example 4, 5-(4-chloro-3′-trifluoromethyl-biphenyl-2-yl)-3H-[1,2,3]triazole-4-carbonitrile] | 6.62
N#Cc1[nH]nnc1-c1cc(OCC2CC2)cc(-c2ccc(C(F)(F)F)cn2)c1 [Example 18, 5-[3-cyclopropylmethoxy-5-(5-trifluoromethyl-pyridin-2-yl)-phenyl]-3H-[0,1,2,3]triazole-4-carbonitrile] | 6.24
N#Cc1[nH]nnc1-c1ccc(/C=C/c2cccc(C(F)(F)F)c2)s1 [Example 133, 5-{5-[(E)-2-(3-trifluoromethyl-phenyl)-vinyl]-thiophen-2-yl}-3H-[1,2,3]triazole-4-carbonitrile] | 6.72
CCCc1sc(-c2cccc(C(F)(F)F)c2)nc1-c1nn[nH]c1C#N [Example 104, 5-[5-propyl-2-(3-trifluoromethyl-phenyl)-thiazol-4-yl]-3H-[1,2,3]triazole-4-carbonitrile] | 6.15
CCOCc1cc(-c2ccc(F)cc2)cc(-c2nn[nH]c2C#N)c1 [Example 33, 5-(5-ethoxymethyl-4′-fluoro-biphenyl-3-yl)-3H-[1,2,3]triazole-4-carbonitrile] | 6.57
N#Cc1[nH]nnc1-c1cscc1-c1cc(C(F)(F)F)cc(C(F)(F)F)c1 [Example 134, 5-[4-(3,5-bis-trifluoromethyl-phenyl)-thiophen-3-yl]-3H-[1,2,3]triazole-4-carbonitrile] | 7.07
COc1ccc(-c2nn[nH]c2C#N)cc1-c1ccc(F)c(F)c1 [Example 32, 5-(3′,4′-difluoro-6-methoxy-biphenyl-3-yl)-3H-[1,2,3]triazole-4-carbonitrile] | 6.13
N#Cc1[nH]nnc1-c1ccc(-c2cccc(C(F)(F)F)c2)nc1 [Example 143, 5-[6-(3-trifluoromethyl-phenyl)-pyridin-3-yl]-3H-[1,2,3]triazole-4-carbonitrile] | 5.99
N#Cc1[nH]nnc1-c1csc(C23CC4CC(CC(C4)C2)C3)n1 [Example 88, 5-(2-(adamantan-1-yl)-thiazol-4-yl)-3H-[1,2,3]triazole-4-carbonitrile] | 6.21
N#Cc1[nH]nnc1-c1ccc(-c2ccc(Cl)cc2)o1 [Example 136, 5-[5-(4-chloro-phenyl)-furan-2-yl]-3H-[1,2,3]triazole-4-carbonitrile] | 6.17
N#Cc1[nH]nnc1-c1csc(OCc2ccc(Cl)cc2)n1 [Example 82, 5-[2-(4-chloro-benzyloxy)-thiazol-4-yl]-3H-[1,2,3]triazole-4-carbonitrile] | 6.12
N#Cc1[nH]nnc1-c1cc(Cl)ccc1/C=C/c1cccc(C(F)(F)F)c1 [Example 8, 5-{5-chloro-2-[(E)-2-(3-trifluoromethyl-phenyl)-vinyl]-phenyl}-3H-[1,2,3]triazole-4-carbonitrile] | 6.54
N#Cc1[nH]nnc1-c1ccn(-c2cc(C(F)(F)F)ccc2C(F)(F)F)c1 [Example 140, 5-[1-(2,5-bis-trifluoromethyl-phenyl)-1H-pyrrol-3-yl]-3H-[1,2,3]triazole-4-carbonitrile] | 6.10
N#Cc1[nH]nnc1-c1cnc(-c2cccc(C(F)(F)F)c2)s1 [Example 111, 5-[2-(3-trifluoromethyl-phenyl)-thiazol-5-yl]-3H-[1,2,3]triazole-4-carbonitrile] | 6.12
N#Cc1[nH]nnc1-c1csc(Sc2ccc(Cl)cc2)n1 [Example 86, 5-[2-(4-chloro-phenylsulfanyl)-thiazol-4-yl]-3H-[1,2,3]triazole-4-carbonitrile] | 6.17
CCCCCCc1nc(-c2nn[nH]c2C#N)cs1 [Example 87, 5-(2-hexyl-thiazol-4-yl)-3H-[1,2,3]triazole-4-carbonitrile] | 6.05
CCOc1ccc(/C=C/c2cccc(-c3nn[nH]c3C#N)c2)cc1 [Example 44, 5-{3-[(E)-2-(4-ethoxy-phenyl)-vinyl]-phenyl}-3H-[1,2,3]triazole-4-carbonitrile] | 6.16
CCOc1ccc(-c2ccc(C(F)(F)F)nc2)cc1-c1nn[nH]c1C#N [Example 16, 5-[2-ethoxy-5-(6-trifluoromethyl-pyridin-3-yl)-phenyl]-3H-[1,2,3]triazole-4-carbonitrile] | 6.17
N#Cc1[nH]nnc1-c1ccc(-c2cc(F)cc(C(F)(F)F)c2)s1 [Example 129, 5-[5-(3-fluoro-5-trifluoromethyl-phenyl)-thiophen-2-yl]-3H-[1,2,3]triazole-4-carbonitrile] | 6.36
Cc1sc(Oc2ccc(OC(F)(F)F)cc2)nc1-c1nn[nH]c1C#N [Example 96, 5-[5-methyl-2-(4-trifluoromethoxy-phenoxy)-thiazol-4-yl]-3H-[1,2,3]triazole-4-carbonitrile] | 6.17
N#Cc1[nH]nnc1-c1nc(Oc2ccc(OC(F)(F)F)cc2)sc1Cl [Example 109, 5-[5-chloro-2-(4-trifluoromethoxy-phenoxy)-thiazol-4-yl]-3H-[1,2,3]triazole-4-carbonitrile] | 6.17
Cc1sc(-c2ccc(Cl)cn2)nc1-c1nn[nH]c1C#N [Example 95, 5-[2-(5-chloro-pyridin-2-yl)-5-methyl-thiazol-4-yl]-3H-[1,2,3]triazole-4-carbonitrile] | 6.13
Cc1cc(-c2nn[nH]c2C#N)ccc1Cc1cccc(C(F)(F)F)c1 [Example 71, 5-[3-methyl-4-(3-trifluoromethyl-benzyl)-phenyl]-3H-[1,2,3]triazole-4-carbonitrile] | 6.23
N#Cc1[nH]nnc1-c1cccc(CN2CCc3ccccc32)c1 [Example 36, 5-[3-(2,3-dihydro-indol-1-ylmethyl)-phenyl]-3H-[1,2,3]triazole-4-carbonitrile] | 6.35
N#Cc1[nH]nnc1-c1ccc(C(F)(F)F)c(/C=C/c2cccc(C(F)(F)F)c2)c1 [Example 46, 5-{4-trifluoromethyl-3-[(E)-2-(3-trifluoromethyl-phenyl)-vinyl]-phenyl}-3H-[1,2,3]triazole-4-carbonitrile] | 6.01
N#Cc1[nH]nnc1-c1cc(Cl)cc(N2CCC(C(F)(F)F)CC2)c1 [Example 24, 5-[3-chloro-5-(4-trifluoromethyl-piperidin-1-yl)-phenyl]-3H-[1,2,3]triazole-4-carbonitrile] | 6.32
CCc1sc(-c2cccc(C(F)(F)F)c2)nc1-c1nn[nH]c1C#N [Example 99, 5-[5-ethyl-2-(3-trifluoromethyl-phenyl)-thiazol-4-yl]-3H-[1,2,3]triazole-4-carbonitrile] | 6.27
N#Cc1[nH]nnc1-c1cccc(/C=C/c2cccc(C(F)(F)F)c2)c1Cl [Example 42, 5-{2-chloro-3-[(E)-2-(3-trifluoromethyl-phenyl)-vinyl]-phenyl}-3H-[1,2,3]triazole-4-carbonitrile] | 6.23
N#Cc1[nH]nnc1-c1cnc(/C=C/c2cccc(C(F)(F)F)c2)s1 [Example 112, 5-{2-[(E)-2-(3-trifluoromethyl-phenyl)-vinyl]-thiazol-5-yl}-3H-[1,2,3]triazole-4-carbonitrile] | 6.10
CCC(OCc1ccc(C(F)(F)F)cc1)c1cccc(-c2nn[nH]c2C#N)n1 (stereo not drawn) [Example 142, 5-{6-[1-(4-trifluoromethyl-benzyloxy)-propyl]-pyridin-2-yl}-3H-[1,2,3]triazole-4-carbonitrile] | 6.24
